{"source": "patent US9403800B2", "about": "“Compounds for inhibition of cancer cell proliferation” (ChemRegen, Inc., priority 2012, dated 2016)", "key": {"TGF-signaling pathway": {"tested_on": "TGF-signaling pathway", "test": "TGF-signaling pathway transcriptional activity (selectivity)", "assay_type": "cell-based"}, "xenopus embryos": {"tested_on": "xenopus embryos", "test": "xenopus embryo development and marker gene expression", "assay_type": "in vivo", "text": "Previous studies highlighted the importance of Wnt pathway signaling in promoting cellular differentiation. Accordingly, the physiological relevance of the Wnt inhibitory functions of 1 was shown by the effect of this compound on the morphology of xenopus embryos during embryonic development. […] Vent2 and Otx2 are regulated by TCF3 during anteroposterior axis specification in xenopus embryos and HIPK2 antagonizes them through phosphorylation of TCF3. These phenotypes are very similar to embryos with TCF3-knockout and contrast to those of HIPK2-knockout. Together, the observations indicate that compound 1 activates HIPK2 to remove TCF proteins from their target DNA via phosphorylation."}, "[1]": {"test": "chemical stability by HPLC", "assay_type": "physicochemical", "settings": "determined by HPLC", "text": "As observed from the data presented in Table 1, both free bases and salts gave significant Wnt inhibition potency. On the basis of the lipophilic character of many of the analogs, it is likely interaction site on the molecular target has a lipophilic character although polar interactions are apparent. To increase solubility, were possible, hydrochloride salts of the sulfonamides were synthesized. To afford appropriate bioavailability, sulfonamides were synthesized with chemical and metabolic stability in mind."}, "[2]": {"settings": "xenopus embryos incubated with compound"}}}
{"smiles": "O=C1CCCN1c1ccc(S(=O)(=O)N2CCCc3ccccc32)cc1", "note": "[Compound 1, 1-(4-(3,4-dihydroquinolin-1(2H)-ylsulfonyl)phenyl)pyrrolidin-2-one]", "values": [{"measurement": "transcriptional activity of the TGF-signaling pathway", "setting": "TGF-signaling pathway", "result": "did not alter the transcriptional activity"}, {"measurement": "posterior development of xenopus embryos", "setting": "xenopus embryos; treatment during the mid-blastula transition", "result": "inhibited posterior development"}, {"measurement": "anterior and ventral expression domain of Vent2", "setting": "xenopus embryos; [2]", "result": "expanded"}, {"measurement": "anterior marker gene Otx2 expression", "setting": "xenopus embryos; [2]", "result": "decreased anterior marker gene Otx2"}, {"measurement": "half-life", "setting": "[1]", "result": 120, "unit": "h"}]}
